Reference: patent US4309437A, “Pyrrolo-benzodiazepine compounds and anti-tumor composition thereof” (priority 1979, dated 1982)
Structures can show the parent of a compound that is named as a salt.

What was measured:
[1] = Toxicity test (LD50, intraperitoneal, mice); type: in vivo, mouse; details: mouse, in vivo, ip, dd-strain male mice, 18 to 21 g, 3 weeks observation, Probit analysis
Description: (§1) Toxicity test: The compound being tested is suspended in physiological saline in varied concentrations by the serial dilution method (common ratio, 1:1.5). Each solution was administered intraperitoneally to groups of 8 to 12 dd-strain male mice, each 18 to 21 g in body weight. The mice were then bred on a usual diet and water. The LD50 value was determined by Probit analysis by observing dead and alive for 3 weeks after the administration.

[2] = known, in words; cited from earlier work
[3] = known, in words; cited from earlier work; remark: listed apart in the source
[4] = said to be exhibited due to side effects; cited from earlier work
[5] = system: dd-strain male mice; assay: Toxicity test (LD50, intraperitoneal, mice); type: in vivo, mouse; details: 18 to 21 g, 3 weeks observation, Probit analysis, 30240 min
Description: as §1

Molecule `CC(=O)N1c2c(ccc(C)c2OC(N)=O)C(=O)N2C=C(/C=C/C(N)=O)CC2C1S(=O)O` (stereo not shown) [R1=CONH2, R2=COCH3, R3=SO2 H, 5,10,11,11a-tetrahydro-10-acetyl-9-carbamyloxy-8-methyl-5-oxo-11-sulfino-1H-pyrrolo[2,1-c][1,4]benzodiazepin-2-acrylamide] has an LD50 at 504 h [1] of 2.84 mg/kg.
In the case of `COC(=O)Oc1c(C)ccc2c1NC(S(=O)(=O)O)C1CC(/C=C/C(N)=O)=CN1C2=O` (stereo not shown) [R1=COOCH3, R2=H, R3=SO3 H, 5,10,11,11a-tetrahydro-8-methyl-9-methoxycarbonyloxy-5-oxo-11-sulfo-1H-pyrrolo[2,1-c][1,4]-benzodiazepin-2-acrylamide], the LD50 at 504 h [1] is reported as 2.55 mg/kg.
In the case of `Cc1ccc2c(c1O)N=CC1CC(/C=C/C(N)=O)=CN1C2=O` (stereo not shown) [P'B'A', 5,11,11a-trihydro-9-hydroxy-8-methyl-5-oxo-1H-pyrrolo-[2,1-c][1,4]benzodiazepin-2-acrylamide], the antitumor activity [2] is given as “very strong antitumor activity”, the antibacterial activity [3] is given as “antibacterial and antitumor activities are exhibited” and the “toxicity, particularly cardiotoxicity” value [4] is given as “strong toxicity, particularly cardiotoxicity”.
`Cc1ccc2c(c1O)NC(S(=O)O)C1CC(/C=C/C(N)=O)=CN1C2=O` (stereo not shown) [R1=H, R2=H, R3=SO2 K] showed an LD50 [5] of 2.31 mg/kg.
In the case of `COC(=O)Oc1c(C)ccc2c1NC(S(=O)O)C1CC(/C=C/C(N)=O)=CN1C2=O` (stereo not shown) [R1=COOCH3, R2=H, R3=SO2 H], the LD50 at 504 h [1] is reported as 2.56 mg/kg.
In the case of `COC1Nc2c(ccc(C)c2O)C(=O)N2C=C(/C=C/C(N)=O)CC12` (single isomer, unassigned) [P"B"A"], the antitumor activity [2] is given as “very strong antitumor activity”, the antibacterial activity [3] is given as “antibacterial and antitumor activities are exhibited” and the “toxicity, particularly cardiotoxicity” value [4] is given as “strong toxicity, particularly cardiotoxicity”.
For `Cc1ccc2c(c1O)NC(S(=O)O)C1CC(/C=C/C(N)=O)=CN1C2=O` (stereo not shown) [R1=H, R2=H, R3=SO2 Na], the LD50 [5] was 2.28 mg/kg.
For `CC(=O)Oc1c(C)ccc2c1N(C(C)=O)C(S(=O)(=O)O)C1CC(/C=C/C(N)=O)=CN1C2=O` (stereo not shown) [R1=COCH3, R2=COCH3, R3=SO3 H, 5,10,11,11a-Tetrahydro-9-acetoxy-10-acetyl-8-methyl-5-oxo-11-sulfo-1H-pyrrolo[2,1-c][1,4]benzodiazepin-2-acrylamide], the LD50 [5] was 2.81 mg/kg.
In the case of `Cc1ccc2c(c1OC(N)=O)NC(S(=O)O)C1CC(/C=C/C(N)=O)=CN1C2=O` (stereo not shown) [R1=CONH2, R2=H, R3=SO2 H, 5,10,11,11a-Tetrahydro-9-carbamyloxy-8-methyl-5-oxo-11-sulfino-1H-pyrrolo[2,1-c][1,4]benzodiazepin-2-acrylamide], the LD50 at 504 h [1] is reported as 2.37 mg/kg.
With `Cc1ccc2c(c1OC(N)=O)NC(S(=O)(=O)O)C1CC(/C=C/C(N)=O)=CN1C2=O` (stereo not shown) [R1=CONH2, R2=H, R3=SO3 H, 5,10,11,11a-Tetrahydro-9-carbamyloxy-8-methyl-5-oxo-11-sulfo-1H-pyrrolo[2,1-c][1,4]benzodiazepin-2-acrylamide] the LD50 at 504 h [1] was 2.4 mg/kg.
For `Cc1ccc2c(c1O)NC(O)C1CC(/C=C/C(N)=O)=CN1C2=O` (single isomer, unassigned) [PBA, 5,10,11,11a-tetrahydro-9,11-dihydroxy-8-methyl-5-oxo-1H-pyrrolo[2,1-c][1,4]-benzodiazepin-2-acrylamide], the LD50 at 504 h [1] is given as 0.73 mg/kg, the antitumor activity [2] is given as “very strong antitumor activity” and the antibacterial activity [3] is given as “antibacterial and antitumor activities are exhibited”. The “toxicity, particularly cardiotoxicity” value [4] was “strong toxicity, particularly cardiotoxicity”.
`Cc1ccc2c(c1O)NC(S(=O)(=O)O)C1CC(/C=C/C(N)=O)=CN1C2=O` (stereo not shown) [R1=H, R2=H, R3=SO3 Na] showed an LD50 [5] of 2.31 mg/kg.
Molecule `CC(=O)N1c2c(ccc(C)c2O)C(=O)N2C=C(/C=C/C(N)=O)CC2C1S(=O)(=O)O` (stereo not shown) [R1=H, R2=COCH3, R3=SO3 Na, 5,10,11,11a-tetrahydro-10-acetyl-9-hydroxy-8-methyl-5-oxo-11-sulfo-1H-pyrrolo[2,1-c][1,4]benzodiazepin-2-acrylamide sodium salt] has an LD50 at 504 h [1] of 2.51 mg/kg.
In the case of `CC(=O)N1c2c(ccc(C)c2O)C(=O)N2C=C(/C=C/C(N)=O)CC2C1S(=O)(=O)O` (stereo not shown) [R1=H, R2=COCH3, R3=SO3 H, 5,10,11,11a-Tetrahydro-10-acetyl-9-hydroxy-8-methyl-5-oxo-11-sulfo-1H-pyrrolo[2,1-c][1,4]benzodiazepin-2-acrylamine], the LD50 [5] is reported as 2.43 mg/kg.
Work on `CC(=O)Oc1c(C)ccc2c1N(C(C)=O)C(S(=O)(=O)O)C1CC(/C=C/C(N)=O)=CN1C2=O` (stereo not shown) [R1=COCH3, R2=COCH3, R3=SO3 Na] yielded an LD50 at 504 h [1] of 3.04 mg/kg.
Molecule `CC(=O)Oc1c(C)ccc2c1NC(S(=O)O)C1CC(/C=C/C(N)=O)=CN1C2=O` (stereo not shown) [R1=COCH3, R2=H, R3=SO2 Na, 5,10,11,11a-tetrahydro-9-acetoxy-8-methyl-5-oxo-11-sulfino-1H-pyrrolo[2,1-c][1,4]benzodiazepin-2-acrylamide sodium salt] has an LD50 ([5]; sodium salt) of 2.60 mg/kg.
`Cc1ccc2c(c1O)NC(S(=O)O)C1CC(/C=C/C(N)=O)=CN1C2=O` (stereo not shown) [R1=H, R2=H, R3=SO2 H, 5,10,11,11a-tetrahydro-9-hydroxy-8-methyl-5-oxo-11-sulfino-1H-pyrrolo[2,1-c][1,4]-benzodiazepin-2-acrylamide] gave an LD50 at 504 h [1] of 2.18 mg/kg.
For `CC(=O)Oc1c(C)ccc2c1NC(S(=O)O)C1CC(/C=C/C(N)=O)=CN1C2=O` (stereo not shown) [R1=COCH3, R2=H, R3=SO2 H, 5,10,11,11a-Tetrahydro-9-acetoxy-8-methyl-5-oxo-11-sulfino-1H-pyrrolo[2,1-c][1,4]benzodiazepin-2-acrylamide], the LD50 at 504 h [1] was 2.54 mg/kg.
Molecule `Cc1ccc2c(c1O)NC(S(=O)(=O)O)C1CC(/C=C/C(N)=O)=CN1C2=O` (stereo not shown) [R1=H, R2=H, R3=SO3 H, 5,10,11,11a-Tetrahydro-9-hydroxy-8-methyl-5-oxo-11-sulfo-1H-pyrrolo[2,1-c][1,4]benzodiazepin-2-acrylamide] has an LD50 at 504 h [1] of 2.21 mg/kg.
For `CC(=O)N1c2c(ccc(C)c2O)C(=O)N2C=C(/C=C/C(N)=O)CC2C1S(=O)O` (stereo not shown) [R1=H, R2=COCH3, R3=SO2 H, 5,10,11,11a-tetrahydro-10-acetyl-9-hydroxy-8-methyl-5-oxo-11-sulfino-1H-pyrrolo-[2,1-c][1,4]benzodiazepin-2-acrylamide], the LD50 at 504 h [1] was 2.5 mg/kg.
With `CC(=O)Oc1c(C)ccc2c1NC(S(=O)(=O)O)C1CC(/C=C/C(N)=O)=CN1C2=O` (stereo not shown) [R1=COCH3, R2=H, R3=SO3 H, 5,10,11,11a-tetrahydro-9-acetoxy-8-methyl-5-oxo-11-sulfo-1H-pyrrolo[2,1-c][1,4]benzodiazepin-2-acrylamide] the LD50 at 504 h [1] was 2.68 mg/kg.
In the case of `CC(=O)N1c2c(ccc(C)c2OC(N)=O)C(=O)N2C=C(/C=C/C(N)=O)CC2C1S(=O)(=O)O` (stereo not shown) [R1=CONH2, R2=COCH3, R3=SO3 H, 5,10,11,11a-Tetrahydro-10-acetyl-9-carbamyloxy-8-methyl-5-oxo-11-sulfo-1H-pyrrolo[2,1-c][1,4]benzodiazepin-2-acrylamide], the LD50 at 504 h [1] is reported as 2.8 mg/kg.
For `CC(=O)Oc1c(C)ccc2c1N(C(C)=O)C(S(=O)O)C1CC(/C=C/C(N)=O)=CN1C2=O` (stereo not shown) [R1=COCH3, R2=COCH3, R3=SO2 Na], the LD50 at 504 h [1] was 2.71 mg/kg.
`CC(=O)Oc1c(C)ccc2c1N(C(C)=O)C(S(=O)O)C1CC(/C=C/C(N)=O)=CN1C2=O` (stereo not shown) [R1=COCH3, R2=COCH3, R3=SO2 H, 5,10,11,11a-tetrahydro-9-acetoxy-10-acetyl-8-methyl-5-oxo-11-sulfino-1H-pyrrolo-[2,1-c][1,4]benzodiazepin-2-acrylamide] showed an LD50 [5] of 2.62 mg/kg.
